According to patent US6602710B1, “Screening method for SREBP pathway-specific inhibitors” (Chugai Seiyaku Kabushiki Kaisha, priority 1998, dated 2003):

What was measured:
CHO-K1 cells = assay: amphotericin B cytotoxicity assay (cholesterol synthesis activity) in CHO-K1 cells; assay type: cell-based, Chinese hamster; settings: 0.1 μg/ml 25-hydroxycholesterol, 24 hours, FIG. 4
25RA cells = settings: amphotericin B at various concentrations in PBS, 4 hours, FIG. 3
DM7 cells = assay: amphotericin B cytotoxicity assay in DM7 cells; assay type: cell-based, Chinese hamster; settings: compared with 25RA, amphotericin B in PBS, 4 hours, FIG. 3
[1] = tested on: LDL receptor activity of 25RA cells; assay: 125I-LDL binding assay (LDL receptor activity) in 25RA cells; assay type: cell-based, Chinese hamster; settings: simvastatin + (1 μM), sterols −, 24 hours
Procedure: (§1) In order to measure LDL receptor activity, the examples of the present invention use the ^125I-LDL binding assay. However, other suitable means may include incorporation of LDL labeled with a fluorescent lipid DiI into cells or ELISA-mediated measurement of the amount of LDL receptors expressed on the surface of cell membranes, and the screening system of the present invention is not specifically limited to those shown herein.
(§2) On day 0, cells were seeded on 6-well plates at a density of 3×10^4 cells/well, and incubated in F-F12. […] On day 4, the cells were incubated at 4° C. for 2 hours, and then washed twice with PBS. Then, incubation was continued at 4° C. in L-F12 (containing 10 mM Hepes-NaOH, pH 7.4) containing 10 μg/ml ^125I-LDL or 10 μg/ml ^125I-LDL and 400 μg/ml LDL. After 5 hours, the cells were washed with buffer B (150 mM NaCl, 50 mM Tris-HCl, 2 mg/ml BSA, pH 7.4), then buffer C (150 mM NaCl, 50 mM Tris-HCl, pH 7.4) each three times, and incubated with 1 ml of buffer D (50 mM NaCl, 10 mM Hepes-NaOH, 4 mg/ml dextran sulfate, pH 7.4) at 4° C. After one hour, buffer D was recovered and assayed for its radioactivity. The protein level in cells remaining in wells was measured by the BCA method to calculate ^125I-LDL binding per mg of […].

[2] = tested on: LDL receptor activity of CHO-K1 cells; assay: 125I-LDL binding assay (LDL receptor activity) in CHO-K1 cells; assay type: cell-based, Chinese hamster; settings: simvastatin + (1 μM), sterols −, 24 hours
Procedure: as §1, §2

With `C[C@H](CCCC(C)(C)O)[C@H]1CC[C@H]2[C@@H]3CC=C4C[C@@H](O)CC[C@]4(C)[C@H]3CC[C@]12C` [25-hydroxycholesterol] the “cholesterol synthesis activity (amphotericin B cytotoxicity assay)” value (CHO-K1 cells) was “inhibited cholesterol synthesis activity”.
`C[C@@H]1[C@H](O)[C@@H](C)/C=C/C=C/C=C/C=C/C=C/C=C/C=C/[C@H](O[C@@H]2O[C@H](C)[C@@H](O)[C@H](N)[C@@H]2O)C[C@@H]2O[C@](O)(C[C@@H](O)C[C@@H](O)[C@H](O)CC[C@@H](O)C[C@@H](O)CC(=O)O[C@H]1C)C[C@H](O)[C@H]2C(=O)O` [amphotericin B] was tested, and the “survival of cells treated with amphotericin B” value (25RA cells) was “decreased depending on the concentration” and the “survival of cells treated with amphotericin B” value (DM7 cells) was “remarkable resistance”.
In the case of `CCC(C)(C)C(=O)O[C@H]1C[C@@H](C)C=C2C=C[C@H](C)[C@H](CC[C@@H]3C[C@@H](O)CC(=O)O3)[C@H]21` [simvastatin], the “Cell surface binding of [125I]LDL” value [1] is reported as 20.9 ng/mg protein and the “Cell surface binding of [125I]LDL” value [2] is reported as 30.1 ng/mg protein.
